Source: publication PMC9321963 (Birth Defects Research, 2022)
Where two headings read alike, the source gives them in different places.

How the values were obtained:
[1] = Toxicokinetics, rat DRF EFD study; type: in vivo; conditions: for AUC(0-t) / Cmax / Tmax: female, Sprague-Dawley (Crl:CD SD), rat, plasma, po, 60 mg/kg/day, rat DRF EFD, 60 mg/kg/day oral; for Cmax: C max; for Tmax: T max
[2] = Toxicokinetics, rat main EFD study; type: in vivo; conditions: for Tmax / AUC(0-t) / Cmax: female, Sprague-Dawley (Crl:CD SD), rat, plasma, po; for AUC(0-t) / Cmax: rat main EFD; for Cmax: C max
[3] = Toxicokinetics, rat investigative EFD study; type: in vivo; conditions: for Tmax / AUC(0-t) / Cmax: female, rat, plasma, po; for AUC(0-t) / Cmax: rat investigative EFD; for Cmax: C max
[4] = Toxicokinetics, rabbit main EFD study; conditions: female, in vivo
pregnant rats = test: Rat DRF embryofetal developmental toxicity study; type: in vivo; conditions: rat DRF EFD
pregnant rabbits = test: Rabbit EFD studies; type: in vivo
TSF1 = TSF1 (Homo sapiens, UniProt O75716); test: ADP-Glo Kinase Assay, TSF1; type: biochemical
Sequence of TSF1 (O75716 whole entry): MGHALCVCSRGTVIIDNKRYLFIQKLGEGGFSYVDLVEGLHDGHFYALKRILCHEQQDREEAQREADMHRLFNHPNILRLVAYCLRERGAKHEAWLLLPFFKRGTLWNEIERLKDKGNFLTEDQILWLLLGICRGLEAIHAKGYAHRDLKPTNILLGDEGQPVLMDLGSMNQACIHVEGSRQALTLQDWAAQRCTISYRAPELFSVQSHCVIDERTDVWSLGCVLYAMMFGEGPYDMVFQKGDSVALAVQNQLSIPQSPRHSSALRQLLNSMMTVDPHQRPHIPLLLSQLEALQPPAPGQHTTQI

AhR = target: T1, AhR (Homo sapiens, UniProt P35869); test: In vitro off-target inhibition, AhR
T1 sequence (P35869 11-848): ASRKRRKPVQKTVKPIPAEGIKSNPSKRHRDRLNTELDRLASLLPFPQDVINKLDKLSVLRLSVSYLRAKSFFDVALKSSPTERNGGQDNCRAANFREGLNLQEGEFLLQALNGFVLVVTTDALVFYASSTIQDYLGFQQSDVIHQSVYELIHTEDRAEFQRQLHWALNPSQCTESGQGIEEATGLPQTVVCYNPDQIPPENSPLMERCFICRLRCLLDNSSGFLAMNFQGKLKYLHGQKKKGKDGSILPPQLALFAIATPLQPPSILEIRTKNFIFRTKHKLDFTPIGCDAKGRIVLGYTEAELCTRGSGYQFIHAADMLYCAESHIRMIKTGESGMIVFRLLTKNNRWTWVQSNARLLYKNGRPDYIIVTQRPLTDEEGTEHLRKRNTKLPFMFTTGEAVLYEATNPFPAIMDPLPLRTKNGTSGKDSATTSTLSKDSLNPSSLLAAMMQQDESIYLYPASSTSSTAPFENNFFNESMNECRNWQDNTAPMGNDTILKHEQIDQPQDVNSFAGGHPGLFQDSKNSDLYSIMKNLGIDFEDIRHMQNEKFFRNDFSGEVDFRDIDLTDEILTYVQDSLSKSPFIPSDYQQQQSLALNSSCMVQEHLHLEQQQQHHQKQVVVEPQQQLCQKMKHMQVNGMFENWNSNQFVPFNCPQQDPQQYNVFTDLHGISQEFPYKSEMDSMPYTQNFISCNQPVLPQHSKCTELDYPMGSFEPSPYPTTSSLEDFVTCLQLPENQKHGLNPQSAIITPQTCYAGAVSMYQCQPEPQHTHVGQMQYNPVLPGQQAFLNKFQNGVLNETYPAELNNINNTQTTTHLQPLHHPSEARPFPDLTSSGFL

PI3Kδ = PI3Kδ (Homo sapiens, UniProt O00329); test: ADP-Glo Kinase Assay, PI3Kδ; type: biochemical
Sequence of PI3Kδ (O00329 whole entry): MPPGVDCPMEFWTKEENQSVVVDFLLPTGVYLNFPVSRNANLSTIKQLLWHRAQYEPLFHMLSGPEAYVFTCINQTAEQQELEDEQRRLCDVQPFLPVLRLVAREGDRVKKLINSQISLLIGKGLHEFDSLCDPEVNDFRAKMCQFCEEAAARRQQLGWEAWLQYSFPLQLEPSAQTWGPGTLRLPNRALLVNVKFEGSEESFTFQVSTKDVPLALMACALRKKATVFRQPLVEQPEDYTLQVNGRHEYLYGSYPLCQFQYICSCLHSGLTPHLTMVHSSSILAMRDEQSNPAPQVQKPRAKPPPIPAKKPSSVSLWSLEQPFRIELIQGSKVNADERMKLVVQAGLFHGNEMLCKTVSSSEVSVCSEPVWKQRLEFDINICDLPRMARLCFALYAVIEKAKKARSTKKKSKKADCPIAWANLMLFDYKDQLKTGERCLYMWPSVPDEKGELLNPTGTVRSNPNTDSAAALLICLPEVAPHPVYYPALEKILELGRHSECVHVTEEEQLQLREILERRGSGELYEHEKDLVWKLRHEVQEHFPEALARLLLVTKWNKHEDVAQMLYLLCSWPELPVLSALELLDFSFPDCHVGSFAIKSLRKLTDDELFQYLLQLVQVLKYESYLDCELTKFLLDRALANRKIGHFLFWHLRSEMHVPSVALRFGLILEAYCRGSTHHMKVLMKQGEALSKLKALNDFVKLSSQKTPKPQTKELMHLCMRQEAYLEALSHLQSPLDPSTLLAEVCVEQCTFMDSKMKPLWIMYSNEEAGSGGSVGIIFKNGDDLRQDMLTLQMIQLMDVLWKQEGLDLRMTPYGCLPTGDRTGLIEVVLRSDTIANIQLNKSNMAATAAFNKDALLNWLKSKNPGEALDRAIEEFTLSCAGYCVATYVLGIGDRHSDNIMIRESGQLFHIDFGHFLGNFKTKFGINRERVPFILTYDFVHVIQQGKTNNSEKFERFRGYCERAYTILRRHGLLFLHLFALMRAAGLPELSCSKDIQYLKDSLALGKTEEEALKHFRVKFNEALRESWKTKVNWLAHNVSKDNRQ
Sequence of PI3Kδ (P27986 whole entry partner): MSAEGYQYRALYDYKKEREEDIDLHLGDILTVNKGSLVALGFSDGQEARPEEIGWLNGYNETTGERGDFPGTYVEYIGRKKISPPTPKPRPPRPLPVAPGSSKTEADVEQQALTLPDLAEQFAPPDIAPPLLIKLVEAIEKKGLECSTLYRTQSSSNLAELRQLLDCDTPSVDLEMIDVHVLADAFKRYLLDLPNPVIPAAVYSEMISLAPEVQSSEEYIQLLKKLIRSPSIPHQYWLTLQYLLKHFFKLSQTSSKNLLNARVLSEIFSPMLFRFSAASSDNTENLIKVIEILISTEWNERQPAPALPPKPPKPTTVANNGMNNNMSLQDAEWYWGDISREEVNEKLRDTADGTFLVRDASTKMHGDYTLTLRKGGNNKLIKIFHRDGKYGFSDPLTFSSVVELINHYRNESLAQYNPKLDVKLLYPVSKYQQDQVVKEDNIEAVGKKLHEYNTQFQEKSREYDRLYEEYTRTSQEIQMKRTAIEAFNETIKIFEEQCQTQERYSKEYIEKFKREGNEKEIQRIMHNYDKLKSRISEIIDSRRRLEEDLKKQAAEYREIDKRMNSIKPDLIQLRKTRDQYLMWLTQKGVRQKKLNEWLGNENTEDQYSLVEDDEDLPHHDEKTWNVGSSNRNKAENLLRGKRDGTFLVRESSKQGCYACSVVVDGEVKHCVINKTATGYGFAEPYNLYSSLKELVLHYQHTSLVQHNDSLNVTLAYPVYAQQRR

[5] = target: All other off‐targets including kinases tested; test: In vitro off-target and kinase panels, all other targets; type: biochemical; conditions: read-out: IC50s, all other off‐targets including kinases tested, human
[6] = human, male, ref McCarthy et al. ([2020]), cited from earlier work
PI4Kα = PI4Kα (Homo sapiens, UniProt P42356); conditions: chemoproteomic profiling, ref Paquet et al., [2017]; cited from earlier work
Sequence of PI4Kα (P42356 whole entry): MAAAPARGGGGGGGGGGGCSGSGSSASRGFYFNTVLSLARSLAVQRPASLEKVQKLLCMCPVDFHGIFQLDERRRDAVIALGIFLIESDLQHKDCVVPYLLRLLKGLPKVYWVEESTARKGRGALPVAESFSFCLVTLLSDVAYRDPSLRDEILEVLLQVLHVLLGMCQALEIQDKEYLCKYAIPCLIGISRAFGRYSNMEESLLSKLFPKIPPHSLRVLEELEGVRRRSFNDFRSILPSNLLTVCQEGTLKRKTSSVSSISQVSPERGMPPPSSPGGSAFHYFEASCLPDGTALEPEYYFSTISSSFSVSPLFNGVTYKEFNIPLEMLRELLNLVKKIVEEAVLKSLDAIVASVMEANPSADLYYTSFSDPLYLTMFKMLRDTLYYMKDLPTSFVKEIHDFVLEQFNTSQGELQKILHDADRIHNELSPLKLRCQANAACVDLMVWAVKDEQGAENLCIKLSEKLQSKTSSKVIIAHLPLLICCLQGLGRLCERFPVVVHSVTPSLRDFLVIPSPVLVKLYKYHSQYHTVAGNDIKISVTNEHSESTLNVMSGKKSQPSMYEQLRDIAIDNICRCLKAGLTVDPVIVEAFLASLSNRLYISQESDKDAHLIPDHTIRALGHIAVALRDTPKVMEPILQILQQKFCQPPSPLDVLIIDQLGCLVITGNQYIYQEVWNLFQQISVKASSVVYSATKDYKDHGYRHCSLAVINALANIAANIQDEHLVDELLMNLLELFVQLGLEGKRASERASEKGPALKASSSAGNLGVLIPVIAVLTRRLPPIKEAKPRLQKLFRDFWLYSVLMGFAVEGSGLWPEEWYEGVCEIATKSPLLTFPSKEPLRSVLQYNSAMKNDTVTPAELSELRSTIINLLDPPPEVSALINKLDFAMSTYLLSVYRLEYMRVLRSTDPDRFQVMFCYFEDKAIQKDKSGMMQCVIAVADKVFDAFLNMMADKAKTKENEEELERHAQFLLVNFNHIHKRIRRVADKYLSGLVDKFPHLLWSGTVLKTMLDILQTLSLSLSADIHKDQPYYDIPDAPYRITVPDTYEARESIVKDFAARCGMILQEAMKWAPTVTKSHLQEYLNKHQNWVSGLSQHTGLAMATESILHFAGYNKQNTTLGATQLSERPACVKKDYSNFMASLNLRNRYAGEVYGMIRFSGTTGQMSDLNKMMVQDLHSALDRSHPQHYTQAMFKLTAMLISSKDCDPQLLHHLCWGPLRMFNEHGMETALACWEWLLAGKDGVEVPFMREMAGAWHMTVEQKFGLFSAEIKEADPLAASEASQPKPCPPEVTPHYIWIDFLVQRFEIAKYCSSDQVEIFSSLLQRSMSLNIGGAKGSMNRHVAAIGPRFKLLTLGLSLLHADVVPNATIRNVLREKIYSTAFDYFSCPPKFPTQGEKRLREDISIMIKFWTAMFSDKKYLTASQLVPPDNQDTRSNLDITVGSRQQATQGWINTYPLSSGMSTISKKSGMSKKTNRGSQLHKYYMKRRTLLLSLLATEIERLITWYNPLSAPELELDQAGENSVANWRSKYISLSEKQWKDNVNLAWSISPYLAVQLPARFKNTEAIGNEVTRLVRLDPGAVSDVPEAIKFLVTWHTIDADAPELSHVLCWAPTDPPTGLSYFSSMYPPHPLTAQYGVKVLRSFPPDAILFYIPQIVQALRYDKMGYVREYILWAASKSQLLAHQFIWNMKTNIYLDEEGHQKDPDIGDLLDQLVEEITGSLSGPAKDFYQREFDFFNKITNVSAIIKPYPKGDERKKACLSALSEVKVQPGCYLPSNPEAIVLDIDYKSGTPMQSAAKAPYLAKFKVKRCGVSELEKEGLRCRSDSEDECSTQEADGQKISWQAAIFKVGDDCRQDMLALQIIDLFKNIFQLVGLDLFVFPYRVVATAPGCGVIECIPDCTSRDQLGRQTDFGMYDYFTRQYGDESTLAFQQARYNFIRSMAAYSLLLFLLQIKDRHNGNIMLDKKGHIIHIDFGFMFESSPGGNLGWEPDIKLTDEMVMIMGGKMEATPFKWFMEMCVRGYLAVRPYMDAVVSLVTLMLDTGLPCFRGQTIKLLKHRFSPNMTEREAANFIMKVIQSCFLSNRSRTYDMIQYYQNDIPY

[7] = 2 mg/kg/day, 2 mg/kg/day oral, GD6
[8] = 2 mg/kg/day, 2 mg/kg/day oral, GD17
[9] = 6 mg/kg/day, 6 mg/kg/day oral, GD6
[10] = 6 mg/kg/day, 6 mg/kg/day oral, GD17
[11] = 20 mg/kg/day, 20 mg/kg/day oral, GD6
[12] = 20 mg/kg/day, 20 mg/kg/day oral, GD17
[13] = Sprague-Dawley (Crl: OFA SD), 40 mg/kg/day, 40 mg/kg/day oral, GD6
[14] = Sprague-Dawley (Crl: OFA SD), 40 mg/kg/day, 40 mg/kg/day oral, GD17
[15] = Sprague-Dawley, 20 mg/kg/day, 20 mg/kg/day oral, GD6
[16] = Sprague-Dawley, 20 mg/kg/day, 20 mg/kg/day oral, GD17

## CS(=O)(=O)c1ccc(-c2cnc(N)c(-c3ccc(C(F)(F)F)nc3)c2)cc1 [MMV390048]
[1]; across rat EFD in vivo studies
  maximum concentrations achieved in vivo, free: 8 µM
[1]; GD6
  AUC(0-t): 229000 ng·h/mL
  Cmax: 15600 ng/mL
  Tmax: 8 h
[1]; GD17
  AUC(0-t): 361000 ng·h/mL
  Cmax: 21300 ng/mL
  Tmax: 4 h
[1]; rat DRF EFD KIT, GD17, 60 mg/kg, 4 hr post dose
  Maximum exposure (free): 8 μM/L
[2]; 2 mg/kg/day
  Tmax: 2 h
[2]; [7]
  AUC(0-t): 3750 ng·h/mL
  Cmax: 680 ng/mL
[2]; [8]
  AUC(0-t): 3770 ng·h/mL
  Cmax: 681 ng/mL
[2]; 6 mg/kg/day
  Tmax: 2 h
[2]; [9]
  AUC(0-t): 19600 ng·h/mL
  Cmax: 1380 ng/mL
[2]; [10]
  AUC(0-t): 21400 ng·h/mL
  Cmax: 1600 ng/mL
[2]; 20 mg/kg/day
  Tmax: 4 h
[2]; [11]
  AUC(0-t): 70000 ng·h/mL
  Cmax: 4950 ng/mL
[2]; [12]
  AUC(0-t): 74400 ng·h/mL
  Cmax: 5190 ng/mL
[2]; rat EFD main KIT, GD17, 20 mg/kg, 4 hr post dose
  Maximum exposure (free): 2 μM/L
[3]; Sprague-Dawley (Crl: OFA SD), 40 mg/kg/day
  Tmax: 7 h
[3]; [13]
  AUC(0-t): 213000 ng·h/mL
  Cmax: 11300 ng/mL
[3]; [14]
  AUC(0-t): 310000 ng·h/mL
  Cmax: 17100 ng/mL
[3]; Sprague-Dawley, 20 mg/kg/day
  Tmax: 7 h
[3]; [15]
  AUC(0-t): 92900 ng·h/mL
  Cmax: 5230 ng/mL
[3]; [16]
  AUC(0-t): 134000 ng·h/mL
  Cmax: 7550 ng/mL
[3]; rat investigational EFD CRL, GD17, 40 mg/kg, 7 hr post dose
  Maximum exposure (free): 6.5 μM/L
[4]; 1 mg/kg/day
  AUC(0-t): 4090 ng·h/mL
  Cmax: 250 ng/mL
  Tmax: 4 h
[4]; 3 mg/kg/day
  AUC(0-t): 13600 ng·h/mL
  Cmax: 894 ng/mL
  Tmax: 2 h
[4]; 10 mg/kg/day
  AUC(0-t): 53300 ng·h/mL
  Cmax: 3410 ng/mL
  Tmax: 2 h
Pregnant rats; 3 mg/kg/day GD6-GD17
  Female with viable fetuses: 8/8
  Postimplantation loss (%): 5.1%
Pregnant rats; 10 mg/kg/day GD6-GD17
  Female with viable fetuses: 8/8
  Fetal BW % from CTL: −2%
  Postimplantation loss (%): 1.7%
Pregnant rats; 30 mg/kg/day GD6-GD17
  Female with viable fetuses: 7/7
  Fetal BW % from CTL: −5%
  Heart VSD, fetuses with malformation/total fetuses examined: 1/43
  Heart VSD, litters with malformation/total litters examined: 1/7
  Postimplantation loss (%): 5.9%
Pregnant rats; 60 mg/kg/day
  Treatment‐related skeletal malformations: fused rib, short rib, split sternebra, and fused cervical arch
  VSD, number of fetuses: 3 fetuses
  VSD, number of litters: 3 litters
  hernia of the diaphragm, number of fetuses: 12 fetuses
  hernia of the diaphragm, number of litters: 3 litters
Pregnant rats; 60 mg/kg/day GD6-GD17
  Blood vessels IAA, fetuses with malformation/total fetuses examined: 1/40
  Blood vessels IAA, litters with malformation/total litters examined: 1/8
  Female with viable fetuses: 8/8
  Fetal BW % from CTL: −16%
  Heart VSD, fetuses with malformation/total fetuses examined: 7/40
  Heart VSD, litters with malformation/total litters examined: 3/8
  Hernias, fetuses with malformation/total fetuses examined: 12/40
  Hernias, litters with malformation/total litters examined: 3/8
  Postimplantation loss (%): 21.9%
Pregnant rats; 60 mg/kg/day, 14 in the control group
  litter size: 10.6
Pregnant rabbits
  embryofetal developmental toxicity signals: no signals of concern
TSF1
  IC50: 7.3 µM
AhR
  IC50: 7.9 µM
PI3Kδ
  IC50: 8.1 µM
[5]
  IC50: ≥ 20 µM
[6]; dose 40 mg
  AUC(0−inf): 30,320 hr*ng/ml
  C max: 272.7 ng/mL
  T max: 1.5 h
[6]; dose 80 mg
  AUC(0−inf): 82,680 hr*ng/ml
  C max: 561 ng/mL
[6]; dose 120 mg
  AUC(0−inf): 137,800 hr*ng/ml
  C max: 1,094 ng/ml
  T max: 1 h
PI4Kα
  binding to human PI4Kα: no binding
